We go through 6 molecules from US7214716B2, “Agonists specific for the peripheral cannabinoid receptor” (Yissum Research Development Co. of the Hebrew University of …, priority 2000, dated 2007).

Data set [1] has as its system anesthetized rats. In words: Blood pressure assay in anesthetized cannulated rats. Format: in vivo, rat. How it is done:
Systemic blood pressure was monitored in male rats (Sabra strain, 270–350 g). A chronic cannula (P 50, Clay Adams) was implanted into the femoral artery under pentobarbital anesthesia (60 mg/kg). The jugular vein was cannulated for drug administration. The arterial cannula was attached to a pressure transducer (Db23, Statham City) and the transducer was connected to a data acquisition system (CODAS software and scroller card, Dataq, Ohio). Pressure was sampled at a rate of 1/s.
Recordings were taken for 30–60 min before treatment.

The subject of data set [2] is female C57/BL6 mice. How it is done:
This difference in binding is reflected in the results of the pharmacological assays. […] Such effects are considered to be mediated by the CBI receptor.
R. (1993) Eur. J. Pharmacol. 231, 313–314]. At various times after injection mice were tested in four assays consecutively. The four assays were (1) motor activity (ambulation and rearing) in an open field (20×30 cm, divided into 12 squares of equal size) for 8 min; (2) immobility (“catalepsy”) on a ring of 5.5 cm diameter for 4 min; (3) body temperature with a telethermometer (Yellow Springs Instruments Co.); and (4) analgesia on a hot plate maintained at 55° C., measured as the latency (in seconds) until the first hind paw lick or jump from the plate (the latter response was rarely observed) with a maximum of 45 s.

For data set [3], the system named is formalin-induced peripheral pain in mice. In words: Formalin test for peripheral pain. Format: in vivo, mouse. How it is done:
Pain was assessed as the total number of licks of the injected hindpaw recorded for the duration of one hr. Early (5 min) and late (25–60 min) phase pain were observed as described in Calignano, A., La Rana, G., Giuffrida, A. & Piomelli, D. (1998) Nature (London) 394, 277–280.
Pain mediated by the peripheral nervous system, was tested in the “formalin test” for cutaneous (peripheral) pain [Tjolson, A., Berge, O-G., Hunskaar, S., Rosland, J. H. and Hole, K. (1992) Pain, 51, 5–17; Calignano, A., La Rana, G., Giuffrida, A & Piomelli, D. (1998) Nature (London) 394, 277–280; and Jagger, S. I., Hasnie, F. S., Sellaturay, S. and Rice, A.S.C. (1998) Pain 76, 189–199]. […] Immediately after formalin administration pain was assessed every 5 min for 1 hr by the number of times the animal licks the formalin-injected paw.

The test system of data set [4] is acetic acid induced inflammatory bowel disease in male Sprague Dawley rats. In words: Acetic acid induced inflammatory bowel disease. Format: in vivo, rat. How it is done: Animals were clinically followed for 1 week and body weight, presence of blood in the stool, and stool consistency were monitored and recorded daily and scored on a scale of 0–4 according to the scale provided in Table 1 [Murthy et al., Dig. Dis. Sci., 38(9), 1722–1734, (1993)].
Seven days post disease induction animals were euthanized with phenobarbital (100 mg/kg i.p.), the whole colon excised, slit longitudinally, and examined under a magnifying glass. Any visible damage to the colon was recorded and scored.
Clinical outcome was analyzed using analysis of variance (ANOVA) followed by Duncan's post hoc test. A non-parametric test (Wilcox Rank Sum Test) was used to evaluate the gross pathology findings.

The subject of data set [5] is female Sabra mice. In words: Inhibition of intestinal motility (fecal pellets voided over 2 hr). Format: in vivo, mouse. How it is done:
Intestinal motility was assessed every 15 min (over a 2 hr period) by the cumulative number of fecal pellets voided in a two hour period after separating the mice into individual cages. […] By 90 min all treated groups differed from controls.
Rectal temperature was also recorded as a measure of central activity.

Data set [6] relates to experimental autoimmune arthritis in CD-1 male mice. In words: Experimental autoimmune arthritis (collagen type 2 in complete Freund's adjuvant). Format: in vivo, mouse. How it is done: Experimental autoimmune arthritis is induced in animals by immunization with collagen type 2 in complete Freund's adjuvant.
Adult CD-1 male mice (27–33 gr), at least five per treatment group, are used in the study. Each animal is administered 100 μg/ml collagen type 2 in 0.1 mL complete Freund's adjuvant. The collagen is administered subcutaneously into the base of the tail. The volume of each hind paw is measured using a plethysmometer (commercially available from Hugo Basill of Italy) before collagen administration and on days 1, 4, 7, 10, 13, and 16 of treatment (30 minutes after drug treatment). […] All treatments are administered intraperitoneally. […] The same procedure is performed with blank cosolvent. Diclofenac is prepared at Pharmos, as a solution of 1 mg/ml. At the same time the paws are measured they are also clinically evaluated according to the method of R. O Williams, Proc. Natl. Acad. Sci. USA: 89: 9784–9788, wherein 0=normal, 1=slight swelling and erythema, 2=pronounced edematous swelling, and 3=joint rigidity.
The major arthritis related sign that is evident in experimental autoimmune arthritis is swelling of the paws. […] The differences are compared using a non parametric analysis (Wilcoxon Rank Sum Test).

Data set [7] has as its system EAE in Lewis rats. In words: Experimental autoimmune encephalomyelitis (EAE). Format: in vivo, rat. The settings on record: intravenous, treatment from day 10 to day 18 post induction.
For data set [8], the system named is arachidonic acid-induced swelling of the ear in female Sabra mice. In words: Arachidonic acid-induced ear inflammation in the mouse. The format is in vivo. The settings on record: for arachidonic acid-induced ear swelling: injected 30 to 90 min before arachidonic acid. How it is done: The other ear was treated with […] of EtOH and served as a control. Ear swelling was assessed by measuring ear thickness with a dial thickness gauge (Mitutoyo, Japan) just before treatment and every 15 min after A′A application for 90 min. […] N=5 for each treatment group.
Ear inflammation was measured by assessing ear tissue swelling after topical application of arachidonic acid. […] J., Wagner, B., Ballaron, S. & De Young, L. M. (1984) J. Invest. Dernlatol. 82, 367–371]. […] The opposite ear served as a control ([…] ethanol). Ear thickness was determined (in 0.01 mm units) every 15 min for 90 min starting immediately after arachidonic acid application using a dial thickness gauge (Mitutoyo, Japan).

Data set [9] deals with CB2 receptor (Homo sapiens, UniProt P34972). Conditions: background, known compound; cited from earlier work.
Setting [10] is: 40 mg/kg i.p., tested 10, 30 or 150 min after administration.

Sequence of CB2 receptor (P34972 whole entry): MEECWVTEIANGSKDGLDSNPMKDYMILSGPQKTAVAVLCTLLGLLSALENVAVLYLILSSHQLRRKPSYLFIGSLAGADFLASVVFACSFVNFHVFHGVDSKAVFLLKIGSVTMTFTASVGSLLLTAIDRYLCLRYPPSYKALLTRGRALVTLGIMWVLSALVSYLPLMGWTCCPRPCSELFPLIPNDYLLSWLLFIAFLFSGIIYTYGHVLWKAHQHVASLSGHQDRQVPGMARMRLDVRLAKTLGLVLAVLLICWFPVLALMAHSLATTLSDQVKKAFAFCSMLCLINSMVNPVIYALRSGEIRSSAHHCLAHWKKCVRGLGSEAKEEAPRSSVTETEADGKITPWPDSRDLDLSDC

For the molecule `CCCCCCC(C)(C)c1cc(OC)c([C@H]2C=C(CO)[C@H]3CC2C3(C)C)c(OC)c1` (single isomer, unassigned; (+)) [HU-308, (+)-(1-a-H,-(3-H,5-a-H)-4-(2,6-dimethoxy-4-(1,1-dimethylheptyl)phenyl]-6,6-dimethylbicycloj3.1.1]hept-2-ene-2-carbinol], the “effect on blood pressure” value in [1] (30 mg/kg i.v., anesthetized cannulated rats) is “lowers blood pressure”. In data set [1] (SR141716A 3 mg/kg injected 5 min prior to HU-308 30 mg/kg i.v.), the “hypotensive effect after CB1 antagonist SR 141716A” value is recorded as “not by the CB1 antagonist SR 141716A”. In addition, the “hypotensive effect after CB2 antagonist SR 144528” value in data set [1] (SR144528 1 mg/kg injected 5 min prior to HU-308 30 mg/kg i.v.) is “blocked by the CB2 antagonist SR 144528”. The “time for blood pressure effect to return to normal after administration” value in data set [1] (i.v. bolus, preliminary observations) is less than 30 min. In addition, the “effect on blood pressure, lower doses” value in [1] (i.v. doses lower than 30 mg/kg) is “did not have a significant effect”. In addition, in data set [2] (setting [10]), the “activity in an open field trial (ambulation, rearing)” value is “no decrease in their activity in an open field trial”; the “analgesia on a hot plate” value is recorded as “no analgesia on a hot plate”; the body temperature entry was “no reduction in body temperature”; the “catalepsy (immobility on a ring)” value is listed as “no catalepsy”. For the same molecule, in data set [2] (mice, summary), the “activity in the tetrad of behavioral tests specific for THC-type CNS activity” value was “no activity”. Further, the “formalin-induced peripheral pain (licks of injected hindpaw), late phase” value in data set [3] (50 mg/kg i.p., 90 min before formalin, late phase (25-60 min)) is on record as “reduced peripheral pain during the late phase of pain behavior”. The “formalin-induced peripheral pain, early versus late phase” value in [3] (50 mg/kg i.p., early (5 min) and late (25-60 min) phase) is listed as “effects were only observed during the late phase”. For the same molecule, in [3] (SR 141716A injected 15 min before HU-308), the “peripheral analgetic effect after CB1 antagonist SR 141716A” value was “not by SR 141716A”. Further, the “peripheral analgetic effect after CB2 antagonist SR 144528” value in data set [3] (SR144528 injected 15 min before HU-308 50 mg/kg i.p.) is reported as “prevented by SR 144528”. Also, the “severity of acid induced inflammatory bowel disease” value in [4] (10 and 20 mg/kg i.p. daily for seven days) is “can reduce the severity of acid induced inflammatory bowel disease”. In addition, in data set [4] (i.p. daily for 7 days, p<0.05 for 10 mg/kg, p=0.052 for 20 mg/kg), the “reduction of pathological lesion severity in the gastrointestinal tract (gross pathology score) compared to vehicle” value stood at 35%. Further, the “inhibition of intestinal mobility” value in data set [5] (20 mg/kg i.p., mice) is “complete inhibition of intestinal mobility”. Further, the “number of fecal boli voided vs controls” value in data set [5] (100 mg/kg i.p., after 75 min) is on record as “significantly fewer boli than controls”. Also, the “inhibition of intestinal motility in presence of CB2 antagonist SR144528” value in [5] (HU-308 plus SR144528) is “in part blocked this effect”. Besides, in [6] (2-15 mg/kg i.p. every three days or once daily), the “incidence and severity of swelling of the paws” value was “decreased incidence and severity of swelling of the paws”. Besides, the “mean clinical score of EAE” value in data set [7] is given as “diminution of mean clinical score”. Also, the “arachidonic acid-induced ear swelling” value in data set [8] (50 mg/kg i.p.) is on record as “significant reduction of arachidonic acid-induced ear swelling”. Moreover, the “anti-inflammatory effect of HU-308 after CB1 antagonist SR 141716A” value in [8] (SR 141716A 5 mg/kg administered 15 min before HU-308 50 mg/kg i.p.) was “did not prevent the anti-inflammatory effect of HU-308”. In [8] (SR 144528 0.5 mg/kg before HU-308 50 mg/kg i.p.), the “anti-inflammatory effect of HU-308 after CB2 antagonist SR 144528” value is “reduced the anti-inflammatory effect of HU-308”.

Turning to `C=C1CC[C@@H]2[C@@H](C1)c1c(OC)cc(C(C)(C)CCCCCC)cc1OC2(C)C` [L-759,656], the CB1/CB2 binding ratio in data set [9] was greater than 1000.

For the molecule `Cc1c(C(=O)NN2CCCCC2)nn(-c2ccc(Cl)cc2Cl)c1-c1ccc(Cl)cc1` [SR 141716A], the “arachidonic acid-induced ear swelling, antagonist by itself” value in data set [8] (5 mg/kg i.p., alone) was “by itself reduced arachidonic acid-induced ear swelling”.

Take `O=C(O)Cc1ccccc1Nc1c(Cl)cccc1Cl` [diclofenac, reference compound]: in data set [6] (10 mg/kg i.p. every 3 days, positive control), the “paw volume compared to vehicle” value is given as “smaller paw volume compared to the vehicle treated rats, but this difference is not statistically significant”.

Turning to `COc1ccc2c(c1)c(CC(=O)O)c(C)n2C(=O)c1ccc(Cl)cc1` [indomethacin], the “arachidonic acid-induced ear swelling” value in data set [8] (20 mg/kg i.p.) is recorded as “significant reduction of arachidonic acid-induced ear swelling”. The “anti-inflammatory effect compared with HU-308 (50 mg/kg)” value in [8] (indomethacin 20 mg/kg i.p.) is listed as “greater than that produced by HU-308”.

As for SR 144528, the “anti-inflammatory effect, antagonist by itself” value in data set [8] (0.5 mg/kg, alone) is reported as “did not by itself induce an anti-inflammatory effect”.
